Test results taken from the supplement of paper PMC10307832.

Legend:
Test in all cases: relative viability (nuclei count vs DMSO), 5 days (fraction); higher = more cells survive
[1] = compound: CC1=CN=C(N=C1C2=CNC(=C2)C(=O)N[C@H](CO)C3=CC(=CC=C3)Cl)NC4=C(C=C(C=C4)F)Cl [VX-11e] + COc1cc2c(Oc3ccc(NC(=O)C4(C(=O)Nc5ccc(F)cc5)CC4)cc3F)ccnc2cc1OCCCN1CCOCC1 [Foretinib] (partner 0.25 µM)
Procedure, shortened: (§1)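 A single step with final 0.05% Triton X-100, 1% formaldehyde and 1 ug/ml Hoechst fixed the cells and stained nuclei 5 days after treatment. Lung cancer cell lines in 1536-well plates had been treated by pin tool the day after seeding with one drug alone or a fixed anchor-drug dose plus five library-drug doses (not always all listed) in √10 steps, and nuclei were counted on 4× images. Relative viability is the ratio of nuclei in treated wells to nuclei in vehicle wells, taken as the median of duplicate plates.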

[2] = compound: CC1=CN=C(N=C1C2=CNC(=C2)C(=O)N[C@H](CO)C3=CC(=CC=C3)Cl)NC4=C(C=C(C=C4)F)Cl [VX-11e] + Nc1nc2[nH]cc(CCc3ccc(C(=O)N[C@@H](CCC(=O)O)C(=O)O)cc3)c2c(=O)[nH]1 [Pemetrexed] (partner 0.2 µM)
Procedure, shortened: as §1

[3] = compound: CC1=CN=C(N=C1C2=CNC(=C2)C(=O)N[C@H](CO)C3=CC(=CC=C3)Cl)NC4=C(C=C(C=C4)F)Cl [VX-11e] + COc1cccc2cc(-c3nc([C@H]4CC[C@H](C(=O)O)CC4)n4ncnc(N)c34)[nH]c12 [OSI-027] (partner 0.5 µM)
Procedure, shortened: as §1

[4] = compound: CC1=CN=C(N=C1C2=CNC(=C2)C(=O)N[C@H](CO)C3=CC(=CC=C3)Cl)NC4=C(C=C(C=C4)F)Cl [VX-11e] + NC(=O)Nc1cc(-c2cccc(F)c2)sc1C(=O)N[C@H]1CCCNC1 [AZD7762] (partner 0.2 µM)
Procedure, shortened: as §1

Cell Line	relative viability ([1]; first compound 0.04 µM)	relative viability ([1]; first compound 0.1265 µM)	relative viability ([1]; first compound 1.265 µM)	relative viability ([1]; first compound 4 µM)	relative viability ([2]; first compound 0.04 µM)	relative viability ([2]; first compound 0.1265 µM)	relative viability ([2]; first compound 0.4 µM)	relative viability ([2]; first compound 1.265 µM)	relative viability ([2]; first compound 4 µM)	relative viability ([3]; first compound 0.04 µM)	relative viability ([3]; first compound 0.1265 µM)	relative viability ([3]; first compound 1.265 µM)	relative viability ([3]; first compound 4 µM)	relative viability ([4]; first compound 0.04 µM)	relative viability ([4]; first compound 0.1265 µM)	relative viability ([4]; first compound 1.265 µM)	relative viability ([4]; first compound 4 µM)	relative viability ([1]; first compound 0.4 µM)	relative viability ([3]; first compound 0.4 µM)	relative viability ([4]; first compound 0.4 µM)
HCC-15	1.07	0.897	0.558	0.357	0.227	0.232	0.22	0.197	0.15	0.616	0.624	0.227	0.153	1.41	1.18	1.11	0.769	–	–	–
NCI-H2347	0.761	0.877	0.67	0.652	0.412	0.442	0.423	0.389	0.368	0.418	0.467	0.255	0.21	0.834	0.722	0.501	0.375	0.46	0.337	0.551
NCI-H647	1.26	1.12	1.05	0.405	0.187	0.198	0.177	0.137	0.123	0.664	0.456	0.41	0.353	0.347	0.573	0.426	0.215	1.19	0.496	–
NCI-H1944	0.896	0.851	0.806	0.505	0.602	0.77	0.382	0.505	0.374	0.342	0.343	0.309	0.259	0.513	0.522	0.449	0.37	–	–	0.255
NCI-H2085	0.973	0.951	0.835	0.679	0.862	0.873	0.81	0.635	0.583	0.625	0.695	0.322	0.251	0.853	0.975	0.887	0.642	0.725	0.517	0.829
